What all share (format): cell-based, human
A short description of data set [1]: R-luc BLI signal indicating cell viability in dual-reporter cells. The settings on record: human; 8505C-PNIS-PCMV cells, 24 hours, screening; read-out: BLI signal activity of R-luc (cell viability) compared to vehicle group. The text has this: (§1) A pNIS-FL2-TurboFP635-pCMV-Rluc recombinant vector expressing reporter genes driven by dual promoters was constructed by Cosmo Genetech, Ltd. (Republic of Korea) using a pNIS-FL2-TurboFP635 vector and a pcDNA3.1/Hygro(+) vector. Specifically, in order to screen a substance that increases the activity of NIS promoter, Firefly-luciferase2(F-luc2) and TurboFP635 were included downstream (clockwise) of the NIS promoter. In order count cells, CMV promoter and Renilla-luciferase (R-luc) were included upstream (counterclockwise) of the NIS promoter. The pNIS-FL2-TurboFP635 vector was provided from Dr. Abhijit De (ACTREC, India), and the pcDNA3.1/Hygro(+) vector was purchased from invitrogen (USA).
(§2) The 8505C cell line was transfected with the pNIS-FL2-TurboFP635-pCMV-Rluc recombinant vector using the Fu-GENE HD solution according to the protocols of the manufacturer (Promega). […]
(§3) To examine transcriptional regulation of the NIS (sodium iodide symporter) promoter, the 8505C-PNIS-PCMV cells were treated with a tyrosine kinase inhibitor (hereinafter referred to as TKI) library for 24 hours. Next, D-luciferin (150 μg/ml) was added to the cells, and the activity of NIS promoter was measured by IVIS Lumina III (Perkin-Elmer, Wellesley, Mass., USA). To normalize the NIS promoter activity to cell number, 10 μg/ml of h-coelenterazine was added to the cells, and the activity of R-luc was measured. […]

The subject of another data set is 8505C-PNIS-PCMV cells. The description is as above. The settings on record: FIG. 7B.
Description: as §1, §2, §3

Another data set has as its system p-AKT. Description: Western blot of phosphorylated AKT. The conditions noted are these: 8505C-PNIS-PCMV cells. The method, then: (§4) 8505C-PNIS-PCMV cells were treated with TKI-0266 and incubated for 24 hours, and then the cell pellet was washed twice with cold phosphate-buffered saline (hereinafter referred to as PBS). An RIPA buffer (Thermo Fisher Scientific, USA) containing a protease/phosphatase cocktail inhibitor kit (Thermo Fisher Scientific) was added to the cell pellet to lyse the cells. The lysed cells were gently vortexed three times at a time interval, and centrifuged at 13000xg at 4° C. to isolate a soluble protein. The isolated protein was quantified using a BCA protein assay kit (Thermo Fisher Scientific).
(§5) Equal amounts of proteins were separated by 10% SDS-PAGE (sodium dodecyl sulfate-polyacrylamide gel electrophoresis), and then the proteins were transferred to PVDF membranes (Millipore, USA). The PVDF membrane was blocked with 3% BSA (bovine serum albumin) in TBS containing Tween-20 (TBS-T) for 1 hour, and incubated with primary antibodies in 0.5% BSA overnight at 4° C. The next day, the PVDF membrane was incubated with HRP-conjugated secondary antibodies at room temperature for 1 hour, and washed three times with TBS-T. The protein bands were visualized using ECL detection reagent (GE Healthcare Life Sciences, Italy) and the Fusion FX chemiluminescence analyzer system (Vilber lourmat, France). […]

For a further data set, the system named is p-ERK. Put plainly: Western blot of phosphorylated ERK. The settings on record: 8505C-PNIS-PCMV cells. The method, then: as §4, §5
The subject of data set [2] is TPO, TSHR, Tg, TTF-1 and Pax-8. Description: Western blot of thyroid-specific proteins. The conditions noted are these: 8505C-PNIS-PCMV cells. As for the experimental part:
as §4, §5

The next data set has as its system NIS. Put plainly: Immunofluorescence microscopy of NIS. The conditions noted are these: anaplastic thyroid cancer cells, 24 hours. The method, then: 8505C cells were seeded in a plate at a density of 2×10^5 cells and treated with the TKI inhibitor TKI-0266. After 24 hours, the cells were fixed with 4% paraformaldehyde for 30 minutes at room temperature and washed three times with PBS for 10 minutes each wash. Next, the cells were treated with PBS containing 0.7% Triton for 10 minutes at room temperature and quenched with PBS containing 50 mM NH4Cl for 10 minutes at room temperature. The cells were washed three times with PBS for 5 minutes each wash, and then blocked with 5% BSA-containing PBS and incubated with anti-NIS primary antibody (diluted at 1:50; Abcam, UK) overnight at 4° C. The next day, the cells were washed three times with PBS for 10 minutes each wash and incubated with Alexa-Fluor 488-conjugated secondary antibody (diluted at 1:300; Thermo Fisher Scientific) 1 hour. After 1 hour, the cells were washed three times with PBS for 10 minutes for each wash, and mounted on a coverslip using a Vecta mounting medium (Vector Laboratories, USA) containing 4′,6-diamidino-2-phenylindole (DAPI). NIS staining was observed by confocal laser microscopy (Zeiss, LSM 5 exciter, Germany).

As for `Cc1cc2c(N(C)C3CCCCC3)ncnc2s1` [TKI-0266], the viability – broadly, a per cent measure of how many cells are alive, often set against a control – at 24 h in data set [1] was around 75%. In the data set with 8505C-PNIS-PCMV cells, the “BLI signal activity of R-luc, vehicle group vs treated group” value is recorded as “did not significantly differ”. Besides, in the data set on p-AKT, the “level of phosphorylated-AKT (p-AKT) protein vs vehicle” value is “little difference”. In addition, the “level of phosphorylated ERK (p-ERK) protein” value with p-ERK is “significantly decreased”. Further, in data set [2], the “expression of TPO, TSHR, Tg, TTF-1 and Pax8 proteins” value is reported as “increased”. The “expression of Tg, TPO, Pax8, TSHR, NIS and TTF-1 as treatment concentration increased” value in data set [2] (FIG. 12) is reported as “increased”. Moreover, in the data set on NIS, the “expression of endogenous NIS (immunofluorescence)” value was “robust”.
